Test results from ChEMBL document CHEMBL2074125 (Drug Metabol Pharmacokin, 2002).
pIC50: −log10 of the molar value.

Experiments:
[1] = biological target: T1, Solute carrier family 22 member 6 (Rattus norvegicus, UniProt O35956); experiment: TP_TRANSPORTER: uptake in Xenopus laevis oocytes; type: functional, cell-based; details: oocyte
T1 sequence (O35956 whole entry): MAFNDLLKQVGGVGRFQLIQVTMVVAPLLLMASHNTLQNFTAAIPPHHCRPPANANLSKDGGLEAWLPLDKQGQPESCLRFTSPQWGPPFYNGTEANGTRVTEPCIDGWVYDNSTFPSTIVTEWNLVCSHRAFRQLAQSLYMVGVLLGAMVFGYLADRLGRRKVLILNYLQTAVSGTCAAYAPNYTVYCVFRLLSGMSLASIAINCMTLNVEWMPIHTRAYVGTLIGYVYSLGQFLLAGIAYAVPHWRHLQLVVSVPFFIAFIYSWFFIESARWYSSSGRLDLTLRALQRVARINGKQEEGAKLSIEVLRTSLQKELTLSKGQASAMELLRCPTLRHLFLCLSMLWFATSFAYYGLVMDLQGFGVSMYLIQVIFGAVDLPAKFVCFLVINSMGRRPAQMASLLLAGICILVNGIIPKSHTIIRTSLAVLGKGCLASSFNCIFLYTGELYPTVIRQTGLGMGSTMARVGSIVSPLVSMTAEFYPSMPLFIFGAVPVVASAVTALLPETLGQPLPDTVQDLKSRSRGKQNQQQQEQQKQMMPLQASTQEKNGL

[2] = biological target: T1, Solute carrier family 22 member 6; experiment: TP_TRANSPORTER: inhibition of PAH uptake in Xenopus laevis oocytes; type: functional, cell-based, Oocyte

Activity [1]	pIC50 [2]	SMILES
substrate [+]	–	CC1=C(C(=O)O)N2C(=O)[C@@H](NC(=O)[C@H](N)c3ccccc3)[C@H]2SC1 [CEPHALEXIN ANHYDROUS]
substrate [+]	3.14	CN(C)CCn1nnnc1SCC1=C(C(=O)O)N2C(=O)[C@@H](NC(=O)Cc3csc(N)n3)[C@H]2SC1 [CEFOTIAM]
